# Publication PMC10283009, “Cellular photo(geno)toxicity of gefitinib after biotransformation” (Frontiers in Pharmacology, 2023)
# Entries after “also recorded” stand apart in the source; their conditions may differ. Structures can show the parent of a compound that is named as a salt. Where two headings read alike, the source gives them in different places.
# Columns and labels:
# HaCaT cells [1] = assay: cells; details: for Phototoxicity classification according to OECD 432 Guide: PIF <2 no phototoxicity, 2-5 probable phototoxicity, >5 phototoxicity, HaCaT NRU
# Method: Chlorpromazine (CPZ) and sodium dodecyl sulfate (SDS) served as the positive phototoxic and negative non-phototoxic controls, respectively. […] Therefore, the phototoxicity behavior of the metabolites was studied in parallel with the parent drug.
# Concisely, for each compound, two 96-well plates were seeded at a density of 2.0 × 10^4 cells/well. […] All plates were incubated for 1 h in dark conditions. Then, for each sample, in the presence of ice, one plate was irradiated with a non-cytotoxic dose of 5 J/cm^2 UVA (UVA Light), whereas the other was kept in a dark box (Dark). Next, drug solutions were replaced with fresh DMEM medium, and plates were further incubated overnight. Next day, neutral red solution (50 μg/mL) was added into the wells and incubated for 2 h at 37°C. […] Lastly, the absorbance of the plates was read at 550 nm on a Synergy H1 microplate reader. […] Afterwards, photoirritation factor (PIF) values were calculated using the following equation: PIF=IC50 Dark / IC50 UVA Light
# HaCaT cells [2] = assay: Alkaline comet assay (nuclear DNA damage and repair); assay type: cell-based; details: 100 µM
# Method: The comet assay (single-cell gel electrophoresis) was performed as already detailed in [Garcia-Lainez et al. (2018)] in order to detect both single and double strand breaks and alkaline labile sites on nuclear DNA. […] The reference photogenotoxic control of this assay was CPZ (10 μM). Afterwards, one plate was irradiated under 2 J/cm^2 UVA light dose (4 J/cm^2 for DMT-GFT and DMOR-GFT) while the other one was kept in darkness as the negative control. Later, both irradiated and non-irradiated cells were detached from the plates and 100 µL of cell suspension was mixed with 100 µL 1% low melting point agarose solution and loaded onto FLARE® slides. Then, slides were incubated on ice to allow drop jellification. Finally, slides were embedded in a box with lysis buffer to initiate the lysis of cells and incubated overnight at 4°C. Next day, slides were placed in electrophoresis tank filled with 1 L of cold alkaline electrophoresis buffer (0.2 M NaOH, 1 mM EDTA in distilled water and pH ≥ 13). The electrophoresis was run at 21 V (1 V/cm) for 30 min and kept at 4°C. Then, slides were washed twice with MilliQ water and DNA fixation accomplished by a serial dehydration with 70% ethanol and 100% ethanol solutions during 5 min and followed by drying for 2 h at 37°C. Nuclear DNA was stained with a SYBR Gold® bath (1:10,000 in Tris-EDTA buffer) for 30 min at 4°C and slides were kept in darkness until its visualization. Comets (nucleoids and tails) were visualized using a fluorescence microscope (Leica DMI 4000B). DNA damage was quantified by counting and analyzing at least 100 DNA comets. Finally, total comet score (TCS) was obtained with the classification of six DNA damage types ([Møller, 2006]) applying the formula: Cl. 0×0+Cl. 1×1+Cl. 2×2+Cl. 3×3+[Cl. 4×4+Cl. 5×5+Cl. 6×6]/6
# Where Cl. is the class of DNA damage according to the visual scoring.
# The results are expressed in 1–100 arbitrary units, where class 0 comets are comets with no DNA damage while class 6 comets represent comets with maximum DNA damage. Two-way ANOVA (Analysis of Variance) method was used for the statistical analysis of the data.
# [3] = tested on: caspase-3/7 activity in HaCaT cells; assay: Caspase 3/7 activity assay (Apo-ONE); assay type: cell-based, human; details: after UVA 5 J/cm^2, two concentrations up to about the IC50 under UVA
# Method: HaCaT cells were seeded in 96-well plates at a concentration of 2 × 10^5 cell/mL. The next day, cells, in fresh DMEM medium without phenol red, were treated with the compounds at two different concentrations representing 100% and 50% of cell viability according to NRU dose-response curves. After 1 h incubation at 37°C, one plate was irradiated with UVA light (5 J/cm^2) and the other one was kept in dark conditions. Later, plates were incubated for another 24 h at 37°C with fresh DMEM medium. Then, samples were analyzed by the Apo-ONE Homogeneous Caspase-3/7 assay according to the manufacturer’s instructions. Immediately after, the fluorescence was monitored at 0 h and 4 h after the addition of the substrate using Synergy H1 multi-mode microplate reader (excitation at 499 nm and emission at 521 nm). The data was subjected to statistical analysis using the Two-way ANOVA (Analysis of Variance).
# [4] = Triplet excited-state quenching by DMBA (laser flash photolysis); assay type: physicochemical; details: deaerated acetonitrile, 355 nm laser excitation, DMBA 0.1-10 mM
# Method: A pulsed Nd:YAG L52137 V LOTIS TII laser (Sp Lotis Tii, Minsk, Belarus) was used for the excitation at 355 nm. The single pulses were ∼10 ns of duration, and the energy was ∼12 mJ/pulse. Laser flash photolysis (LFP) equipment consisted of a pulsed laser, a 77250 Oriel monochromator, and an oscilloscope DP04054 Tektronix. The output signal from the oscilloscope was transferred to a personal computer for processing. The DMOR-GFT metabolite was dissolved in acetonitrile up to an absorbance of 0.3 at 355 nm. Solutions were deaerated by bubbling nitrogen through the solution during 15 min. The rate constant of triplet excited-state quenching by 1,4-dihydro-1,2-dimethylbenzoic acid (DMBA) was determined using the Stern–Volmer Equation: 1/τ=1/τq+kq DMBA
# Where τ and τ q are the lifetime of transient species in the presence and absence of DMBA, respectively. Concentrations between 0.1 and 10 mM were used for DMBA. This compound was prepared through Birch reduction following standard procedures ([Andreu et al., 2011]).
# [5] = Singlet oxygen production by time-resolved NIR emission at 1,270 nm; assay type: physicochemical
# [6] = Fluorescence emission spectra in different media; assay type: physicochemical; set-up: unit not given here; details: excitation at 320 nm
# Method: (§1) Absorption spectra were recorded in a JASCO V-760 spectrophotometer using 10 × 10 mm^2 quartz cuvettes at room temperature. […] Fluorescence spectra (λ exc = 320 nm) were recorded using a Synergy H1 multi-mode microplate reader.
# [7] = Fluorescence quantum yield of compounds internalized in HaCaT cells; assay type: physicochemical; details: inside HaCaT cells, excitation at 320 nm, anthracene as standard
# Method: as §1
# In parallel, fluorescence quantum yield (ΦF) of the internalized compounds were also determined, by comparison with anthracene as standard (Φ F = 0.27 in ethanol). […]
# [8] = Photosensitized lipid peroxidation (TBARS assay); details: compound 100 µM, linoleic acid 1 mM in PBS, UVA 15 J/cm^2 vs dark
# [9] = biological target: T1, human serum albumin (HSA) (Homo sapiens, UniProt P02768); assay: Photoinduced protein oxidation assay (carbonyl content, DNPH derivatization); details: compound 100 µM, HSA 5 mg/mL in PBS, UVA 15 J/cm^2
# HaCaT cells [10] = assay: Lactate dehydrogenase release assay (CytoTox-ONE); assay type: cell-based, human; details: after UVA 5 J/cm^2, concentration near the IC50
# Method: Lactate Dehydrogenase activity assay was performed according to the manufacturer´s protocol. Briefly, HaCaT cells were seeded in 96-well plates (2 × 10^5 cell/mL) and incubated for 24 h. Then, after replacement of the medium with fresh no-phenol red DMEM, cells were incubated for 1 h with the compounds in two different concentrations representing 100% and 50% of cell viability according to NRU dose-response curves. Next, one plate was irradiated with UVA light (5 J/cm^2) while the other one was kept in dark conditions. Next day, samples were analyzed by CytoTox-ONE™ Homogeneous Membrane Integrity Assay and a lysis solution (9% weight/volume solution of Triton X-100 in water) was used to determine the maximum amount of LDH present. The fluorescence was measured 10 min after the addition of the substrate using Synergy H1 multi-mode microplate reader (excitation at 560 nm and emission at 590 nm). The percent of LDH release was determined following the following equation: % LDH release=Experimental LDH release/Maximum LDH release x 100
# [11] = biological target: T1, human serum albumin (HSA); set-up: purchased Sigma-Aldrich (Madrid, Spain); method as in Tamarit et al., 2021; details: GFT 100 µM, HSA 5 mg/mL in PBS, UVA 15 J/cm^2; carbonyl content value of GFT taken from the literature; ref Tamarit et al., 2021; cited from earlier work
# [12] = set-up: method as in PMID 30069771; details: standard, in ethanol; ref [26]; cited from earlier work
# [13] = Homo sapiens, HaCaT, 1 h, read-out: IC50 dark
# [14] = Homo sapiens, HaCaT, light or radiation study, 1 h, read-out: IC50 UVA light
# [15] = PIF = IC50 Dark / IC50 UVA Light, HaCaT, UVA 5 J/cm^2
# [16] = in presence of calf thymus DNA (ctDNA)
# [17] = in presence of methyl linoleate (ML)
# T1 sequence (P02768 25-609): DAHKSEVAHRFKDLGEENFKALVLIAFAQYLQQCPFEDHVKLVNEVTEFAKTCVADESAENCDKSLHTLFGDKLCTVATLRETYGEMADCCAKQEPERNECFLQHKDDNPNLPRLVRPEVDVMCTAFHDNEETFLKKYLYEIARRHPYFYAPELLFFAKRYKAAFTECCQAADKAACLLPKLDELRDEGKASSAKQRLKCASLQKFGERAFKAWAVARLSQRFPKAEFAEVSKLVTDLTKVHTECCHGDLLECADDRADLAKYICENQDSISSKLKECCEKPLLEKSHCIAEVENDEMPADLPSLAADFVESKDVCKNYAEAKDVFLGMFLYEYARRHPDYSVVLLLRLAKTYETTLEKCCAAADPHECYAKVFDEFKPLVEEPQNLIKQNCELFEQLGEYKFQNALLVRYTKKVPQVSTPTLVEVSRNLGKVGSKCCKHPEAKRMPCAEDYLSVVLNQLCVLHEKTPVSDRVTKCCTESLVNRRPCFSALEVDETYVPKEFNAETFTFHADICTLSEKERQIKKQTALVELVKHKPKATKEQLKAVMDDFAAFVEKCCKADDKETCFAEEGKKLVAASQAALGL
compound,measurement,setting,value
"CN(C)CCCN1c2ccccc2Sc2ccc(Cl)cc21 [CPZ, Chlorpromazine hydrochloride, reference compound]",IC50,HaCaT cells [1]; [13],80 ± 17 µM
same,IC50,HaCaT cells [1]; [14],4 ± 0.9 µM
same,Photoirritant factor (PIF),HaCaT cells [1]; [15],20
"COc1cc2ncnc(Nc3ccc(O)c(Cl)c3)c2cc1OCCCN1CCOCC1 [DF-GFT, 4-Defluoro-4-hydroxy gefitinib]",IC50,HaCaT cells [1]; [13],1020 µM
same,IC50,HaCaT cells [1]; [14],1100 µM
same,Phototoxicity classification according to OECD 432 Guide,HaCaT cells [1],non-phototoxic; also recorded: negligible phototoxic activity
same,Photoirritant factor (PIF),HaCaT cells [1]; [15],~1
"COc1cc2ncnc(Nc3ccc(F)c(Cl)c3)c2cc1O [DMOR-GFT, O-Demorpholinopropyl gefitinib]",IC50,HaCaT cells [1]; [13],144 ± 6 µM
same,IC50,HaCaT cells [1]; [14],3 ± 0.6 µM
same,Photoirritant factor (PIF),HaCaT cells [1]; [15],48
same,Percentage of DNA damage (comet assay),HaCaT cells [2]; UVA light 5 min (2 J/cm^2),did not promote DNA damage
same,Percentage of DNA damage (comet assay),HaCaT cells [2]; UVA light 10 min (4 J/cm^2),around 45%
same,Caspase-3/7 activity (relative change),[3],concentration dependent activation of caspase-3/7
same,Rate constant (kq) of triplet excited state quenching by DMBA,[4],1.96 M^−1·s^−1 × 10^9 M^−1·s^−1
same,Singlet oxygen quantum yield (Φ Δ),[5],≤ 0.1
same,Emission (λmax),[6]; in presence of HSA,432
same,Emission (λmax),[6]; [16],448
same,Emission (λmax),[6]; [17],384
same,Fluorescence quantum yield (ΦF),[7],0.1
same,Photosensitized lipid peroxidation (TBARS content),[8],remarkable enhancement in photosensitized lipid peroxidation comparable to the reference
same,Protein photooxidation (carbonyl content of HSA),[9],significant oxidative effect towards HSA
"Oc1cc2ncnc(Nc3ccc(F)c(Cl)c3)c2cc1OCCCN1CCOCC1 [DMT-GFT, O-Demethyl gefitinib]",IC50,HaCaT cells [1]; [13],34 ± 3 µM
same,IC50,HaCaT cells [1]; [14],5 ± 0.1 µM
same,Phototoxicity classification according to OECD 432 Guide,HaCaT cells [1],can still be considered phototoxic
same,Photoirritant factor (PIF),HaCaT cells [1]; [15],7
same,Percentage of DNA damage (comet assay),HaCaT cells [2]; UVA light 10 min (4 J/cm^2),around 54%
same,Caspase-3/7 activity (relative change),[3],caspase-3/7 activity was similar between the concentration of 2.5 µM and the concentration corresponding to IC50
same,LDH release,HaCaT cells [10],did not show any effect on the LDH release
same,Emission (λmax),[6]; [16],450
same,Emission (λmax),[6]; [17],384
same,Fluorescence quantum yield (ΦF),[7],0.04
same,Photosensitized lipid peroxidation (TBARS content),[8],neither GFT nor DMT-GFT showed detectable changes
same,Protein photooxidation (carbonyl content of HSA),[9],did not exhibit any lipid or protein oxidative damage
"COc1cc2ncnc(Nc3ccc(F)c(Cl)c3)c2cc1OCCCN1CCOCC1 [GFT, Gefitinib hydrochloride, reference compound]",Percentage of DNA damage (comet assay),HaCaT cells [2]; UVA light 5 min (2 J/cm^2),around 72%
same,LDH release,HaCaT cells [10],small but significant percent of LDH-release
same,Singlet oxygen quantum yield (Φ Δ),[5],≤ 0.1
same,Fluorescence quantum yield (ΦF),[7],0.07
same,Protein photooxidation (carbonyl content of HSA),[11],significant oxidative effect towards HSA
"CCCCCCCCCCCCOS(=O)(=O)[O-].[Na+] [SDS, sodium dodecyl sulfate, reference compound]",Photoirritant factor (PIF),HaCaT cells [1],1
same,IC50,"HaCaT cells [1]; read-out: IC50 UVA light, HaCaT, neutral red uptake, UVA 5 J/cm^2, 1 h incubation with compound",136 ± 23 µM
same,IC50,"HaCaT cells [1]; read-out: IC50 dark, HaCaT, neutral red uptake, kept in dark, 1 h incubation with compound",133 ± 31 µM
c1ccc2cc3ccccc3cc2c1 [anthracene],Fluorescence quantum yield (ΦF),[12],0.27
